From ChEMBL document CHEMBL1177797, “Discovery of 3,9-diazabicyclo[4.2.1]nonanes as potent dual orexin receptor antagonists with sleep-promoting activity in the rat” (Bioorg Med Chem Lett, 2010)
Active and inactive are the calls of the source. The calls are words filed in the database; no cut-off is given here.

Columns and labels:
[1] = molecular target: T1, Orexin/Hypocretin receptor type 1 (Homo sapiens, UniProt O43613); test: Antagonist activity at OX1R by FLIPR assay; assay type: functional
T1 sequence (O43613 whole entry): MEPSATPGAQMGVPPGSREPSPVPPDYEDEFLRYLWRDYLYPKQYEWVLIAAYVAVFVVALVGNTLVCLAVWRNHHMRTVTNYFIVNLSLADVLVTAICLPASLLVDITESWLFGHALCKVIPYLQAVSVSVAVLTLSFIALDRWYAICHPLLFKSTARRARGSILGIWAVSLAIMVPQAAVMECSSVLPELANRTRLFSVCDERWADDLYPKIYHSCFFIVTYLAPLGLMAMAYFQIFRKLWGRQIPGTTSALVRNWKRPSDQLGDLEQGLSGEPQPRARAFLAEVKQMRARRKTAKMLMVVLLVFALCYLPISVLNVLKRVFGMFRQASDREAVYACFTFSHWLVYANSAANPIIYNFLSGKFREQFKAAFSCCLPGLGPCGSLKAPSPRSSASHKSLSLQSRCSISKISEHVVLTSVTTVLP

Orexin receptor type 2 [2] = molecular target: T2, Orexin receptor type 2 (Homo sapiens, UniProt O43614); test: Antagonist activity at OX2R by FLIPR assay; assay type: functional
T2 sequence (O43614 whole entry): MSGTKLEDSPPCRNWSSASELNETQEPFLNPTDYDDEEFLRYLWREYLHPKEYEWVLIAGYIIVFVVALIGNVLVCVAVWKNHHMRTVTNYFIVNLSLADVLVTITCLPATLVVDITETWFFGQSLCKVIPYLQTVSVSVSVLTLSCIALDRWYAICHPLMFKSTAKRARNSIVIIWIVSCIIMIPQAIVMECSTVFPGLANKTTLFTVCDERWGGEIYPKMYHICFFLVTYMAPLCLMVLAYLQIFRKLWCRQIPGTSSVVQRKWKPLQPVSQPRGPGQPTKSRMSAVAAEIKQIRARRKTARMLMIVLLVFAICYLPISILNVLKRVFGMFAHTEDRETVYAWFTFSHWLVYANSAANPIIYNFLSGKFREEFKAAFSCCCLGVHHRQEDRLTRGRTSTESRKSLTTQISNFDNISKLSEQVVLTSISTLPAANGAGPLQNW

[3] = molecular target: T1, Orexin/Hypocretin receptor type 1; test: Binding affinity to OX1R
Orexin receptor type 2 [4] = molecular target: T2, Orexin receptor type 2; test: Binding affinity to OX2R
[5] = Clearance in dog at 3 mg/kg, po and 0.125 mg/kg, iv; assay type: ADME, organism-based, Canis lupus familiaris; conditions: in vivo
Canis familiaris = test: AUC (0 to 24 hrs) in dog at 3 mg/kg, po and 0.125 mg/kg, iv; assay type: ADME, organism-based, Canis lupus familiaris, Plasma; conditions: in vivo
Rattus norvegicus [6] = test: AUC (0 to 24 hrs) in Sprague-Dawley rat at 10 mg/kg, po and 2 mg/kg, iv; assay type: ADME, organism-based, Plasma; conditions: in vivo
[7] = Oral bioavailability in dog at 3 mg/kg; assay type: ADME, organism-based, Canis lupus familiaris; conditions: in vivo
[8] = Half life in dog at 3 mg/kg, po and 0.125 mg/kg, iv; assay type: ADME, organism-based, Canis lupus familiaris; conditions: in vivo
[9] = Cmax in dog at 3 mg/kg, po and 0.125 mg/kg, iv; assay type: ADME, organism-based, Canis lupus familiaris; conditions: in vivo
[10] = Oral bioavailability in Sprague-Dawley rat at 10 mg/kg; assay type: ADME, organism-based; conditions: in vivo
[11] = Clearance in Sprague-Dawley rat at 10 mg/kg, po and 2 mg/kg, iv; assay type: ADME, organism-based; conditions: in vivo
[12] = Half life in Sprague-Dawley rat at 10 mg/kg, po and 2 mg/kg, iv; assay type: ADME, organism-based; conditions: in vivo
[13] = Cmax in Sprague-Dawley rat at 10 mg/kg, po and 2 mg/kg, iv; assay type: ADME, organism-based; conditions: in vivo
[14] = Drug level in Sprague-Dawley rat plasma at 10 mg/kg after 2 hrs; assay type: ADME, organism-based; design: dose 10 mg/kg; conditions: read-out: Drug uptake
[15] = Drug level in Sprague-Dawley rat plasma at 30 mg/kg after 2 hrs; assay type: ADME, organism-based; design: dose 30 mg/kg; conditions: read-out: Drug uptake
[16] = Drug level in Sprague-Dawley rat plasma at 60 mg/kg after 1 hr; assay type: ADME, organism-based; design: dose 60 mg/kg; conditions: read-out: Drug uptake
[17] = Drug level in Sprague-Dawley rat plasma at 100 mg/kg after 2 hrs administered in PEG400; assay type: ADME, organism-based; design: dose 100 mg/kg; conditions: read-out: Drug uptake
[18] = Drug level in Sprague-Dawley rat CSF at 10 mg/kg after 2 hrs; assay type: ADME, organism-based, Cerebrospinal fluid; design: dose 10 mg/kg; conditions: read-out: Drug uptake
[19] = Drug level in Sprague-Dawley rat CSF at 30 mg/kg after 2 hrs; assay type: ADME, organism-based, Cerebrospinal fluid; design: dose 30 mg/kg; conditions: read-out: Drug uptake
[20] = Drug level in Sprague-Dawley rat CSF at 60 mg/kg after 1 hr; assay type: ADME, organism-based, Cerebrospinal fluid; design: dose 60 mg/kg; conditions: read-out: Drug uptake
[21] = Ratio of drug level in CSF to plasma in Sprague-Dawley rat at 10 mg/kg after 2 hrs; assay type: ADME, organism-based; design: dose 10 mg/kg
[22] = Ratio of drug level in CSF to plasma in Sprague-Dawley rat at 30 mg/kg after 2 hrs; assay type: ADME, organism-based; design: dose 30 mg/kg
[23] = Ratio of drug level in CSF to plasma in Sprague-Dawley rat at 60 mg/kg after 1 hr; assay type: ADME, organism-based; design: dose 60 mg/kg
Rattus norvegicus [24] = test: Effect on sleep-awake pattern in rat assessed as increase in REM sleep at 60 mg/kg/day, po; assay type: functional, organism-based
Rattus norvegicus [25] = test: Effect on sleep-awake pattern in rat assessed as decrease in wakefulness at 60 mg/kg/day, po; assay type: functional, organism-based
Rattus norvegicus [26] = test: Effect on sleep-awake pattern in rat assessed as increase in […] at 60 mg/kg/day, po; assay type: functional, organism-based

SMILES | IC50 [1] [nM] | IC50 (Orexin receptor type 2 [2]) [nM] | Ki [3] [nM] | Ki (Orexin receptor type 2 [4]) [nM] | further results
O=C(c1cc(Cl)ccc1-n1nccn1)N1C[C@@H]2C[C@H](C1)N(c1ncc3cc(F)ccc3n1)C2 | – | – | 0.4 | 0.6 | –
Cc1ccc(-n2nccn2)c(C(=O)N2CCCN(c3ncc4ccccc4n3)CC2)c1 | – | – | – | – | clearance [5]: 12 mL/min/kg; AUC (Canis familiaris): 0.44 µM·h; AUC (Rattus norvegicus [6]): 0.19 µM·h
Cc1ccc(-n2nccn2)c(C(=O)N2CCC3CCC(C2)N3c2ncc3ccc(F)cc3n2)c1 (racemic) | 72 | 175 | 0.9 | 0.8 | –
Cc1ccc(-n2nccn2)c(C(=O)N2C[C@@H]3CC[C@H]2CN(c2ncc4ccc(F)cc4n2)C3)c1 (single isomer, unassigned) | 46 | 790 | 2 | 62 | –
Cc1ccc(-n2nccn2)c(C(=O)N2C[C@H]3CC[C@@H]2CN(c2ncc4ccc(F)cc4n2)C3)c1 (single isomer, unassigned) | 104 | 370 | 10 | 2.9 | –
Cc1ccc(-n2nccn2)c(C(=O)N2C3CCC2CN(c2ncc4ccc(F)cc4n2)CC3)c1 (single isomer, unassigned; 8a) [listing 1 of 2 here] | 98 | 136 | 0.6 | 0.4 | bioavailability [7]: 100%; clearance [5]: 3.6 mL/min/kg; half-life [8]: 1.8 h; AUC (Canis familiaris): 14.1 µM·h; Cmax [9]: 3400 nM; bioavailability [10]: 14%; clearance [11]: 23 mL/min/kg; half-life [12]: 1 h; AUC (Rattus norvegicus [6]): 1.57 µM·h; Cmax [13]: 570 nM; concentration at 2 h [14]: 1100 nM; concentration at 2 h [15]: 3100 nM; concentration at 1 h [16]: 14600 nM; concentration at 2 h [17]: 12500 nM; concentration at 2 h [18]: 3 nM; concentration at 2 h [19]: 23 nM; concentration at 1 h [20]: 170 nM; Kp at 2 h [21]: 0.004; Kp at 2 h [22]: 0.007; Kp at 1 h [23]: 0.011
Cc1ccc(-n2nccn2)c(C(=O)N2C3CCC2CN(c2ncc4ccc(F)cc4n2)CC3)c1 (single isomer, unassigned; 8a) [listing 2 of 2 here] | – | – | – | – | Activity (Rattus norvegicus [24]): Active; Activity (Rattus norvegicus [25]): Active; Activity (Rattus norvegicus [26]): Active

Now from value to compound, other results behind:

IC50 [1] [nM] | IC50 (Orexin receptor type 2 [2]) [nM] | Ki [3] [nM] | Ki (Orexin receptor type 2 [4]) [nM] | SMILES | further results
125 | 140 | 0.6 | 2.2 | Cc1ccc(-n2nccn2)c(C(=O)N2C[C@H]3CC[C@@H]2CCN3c2ncc3ccc(F)cc3n2)c1 | –
800 | 740 | 7.6 | 14 | Cc1ccc(-n2nccn2)c(C(=O)N2C[C@@H]3CC[C@H]2CCN3c2ncc3ccc(F)cc3n2)c1 | –
2300 | 1450 | 160 | 105 | Cc1ccc(-n2nccn2)c(C(=O)N2CC[C@@H]3CC[C@H]2CN3c2ncc3ccc(F)cc3n2)c1 | –
1600 | > 10000 | 345 | 590 | Cc1ccc(-n2nccn2)c(C(=O)N2CC[C@H]3CC[C@@H]2CN3c2ncc3ccc(F)cc3n2)c1 | –
99 | 150 | 3.7 | 6.7 | Cc1ccc(-n2nccn2)c(C(=O)N2C3CCC2CN(c2ncc4ccc(F)cc4n2)CC3)c1 (single isomer, unassigned; 8b) | –
